Data: ChEMBL document CHEMBL1201862, “PubChem BioAssay data set” (2004)
Calls of active or inactive are those of the source.

Columns and labels:
[1] = target: T1, E3 ubiquitin-protein ligase XIAP (Homo sapiens, UniProt P98170); test: Counter Screen using XIAP-Bir3 for Chemical Antagonists of Bir1/2 domains of IAP-family anti-apoptotic proteins. [Related pubchem assays (depositor defined):AID1018, AID1449, AID1514, AID1638, AID1749, AID1750, AID488957, AID488963]
[2] = target: T1, E3 ubiquitin-protein ligase XIAP; test: small molecules displacing peptide from XIAP – biochemical, IAP family, fluorescence polarization (AID 1018); assay type: functional
Aminopeptidase N = target: T2, Aminopeptidase N (Plasmodium falciparum FcB1/Columbia, UniProt O96935); test: malaria alanyl aminopeptidase activity blockers – biochemical, fluorogenic H-Leu-NHMec substrate, 1536-well (AID 1445); parameters: species or system Plasmodium falciparum 3D7, 3D7
T2 sequence (O96935 whole entry): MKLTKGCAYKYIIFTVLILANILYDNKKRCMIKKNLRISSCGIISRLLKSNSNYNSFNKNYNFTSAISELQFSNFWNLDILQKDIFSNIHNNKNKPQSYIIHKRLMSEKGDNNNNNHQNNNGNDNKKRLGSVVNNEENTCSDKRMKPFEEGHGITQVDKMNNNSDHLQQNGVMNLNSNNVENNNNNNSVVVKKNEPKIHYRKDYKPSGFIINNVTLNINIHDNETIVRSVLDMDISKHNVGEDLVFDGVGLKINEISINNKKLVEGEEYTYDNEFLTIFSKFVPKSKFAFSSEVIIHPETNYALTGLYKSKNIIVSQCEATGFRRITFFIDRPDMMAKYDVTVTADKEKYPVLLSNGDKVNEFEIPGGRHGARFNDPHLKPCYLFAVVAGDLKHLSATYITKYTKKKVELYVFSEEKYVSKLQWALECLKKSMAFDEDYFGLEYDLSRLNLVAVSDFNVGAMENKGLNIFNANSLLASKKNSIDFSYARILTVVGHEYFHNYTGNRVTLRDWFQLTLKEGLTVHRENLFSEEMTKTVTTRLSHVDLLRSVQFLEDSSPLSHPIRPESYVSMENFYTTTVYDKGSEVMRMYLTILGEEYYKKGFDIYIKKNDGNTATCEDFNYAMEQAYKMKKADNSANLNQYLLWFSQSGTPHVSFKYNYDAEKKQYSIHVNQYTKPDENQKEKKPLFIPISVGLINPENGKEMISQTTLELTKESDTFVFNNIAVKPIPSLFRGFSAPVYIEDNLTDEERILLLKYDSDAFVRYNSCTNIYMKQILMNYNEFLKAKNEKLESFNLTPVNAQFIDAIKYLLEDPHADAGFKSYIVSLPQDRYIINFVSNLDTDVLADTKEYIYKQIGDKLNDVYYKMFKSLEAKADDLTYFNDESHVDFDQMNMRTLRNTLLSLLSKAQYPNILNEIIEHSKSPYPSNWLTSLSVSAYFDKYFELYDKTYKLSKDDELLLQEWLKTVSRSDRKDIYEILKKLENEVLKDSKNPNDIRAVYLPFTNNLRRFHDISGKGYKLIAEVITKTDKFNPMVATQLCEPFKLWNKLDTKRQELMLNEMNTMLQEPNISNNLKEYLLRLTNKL

[3] = activation of miR-122 Renilla sensor silencing – cell-based, Huh7 psiCHECK-miR122, Renilla luciferase, cherry-picked, dose response (AID 651956); assay type: functional;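 further: huh7 hepatoma cells stably carrying a psiCHECK-2 miR-122 sensor plasmid; renilla luciferase signal reporting endogenous miR-122 activity after 48 h compound exposure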
[4] = viability of uninfected HEp-2 cells – cell-based, HTS, cytotoxicity control for RSV inhibitor project, dose response (AID 2410); assay type: functional; details: human respiratory syncytial virus
Estrogen receptor beta [5] = target: T3, Estrogen receptor beta (Homo sapiens, UniProt Q92731); test: blockers of SRC-3 recruitment to ERβ – biochemical, ELISA, streptavidin-HRP readout, orthogonal assay, confirmation (AID 1060)
[6] = target: T4, Carboxy-terminal domain RNA polymerase II polypeptide A small phosphatase 1 (Homo sapiens, UniProt Q9GZU7); test: CTDSP1 inhibitors, concentration-response, biochemical, absorbance readout, ultra-high-throughput screen actives (AID 540297); assay type: functional
T4 sequence (Q9GZU7 whole entry): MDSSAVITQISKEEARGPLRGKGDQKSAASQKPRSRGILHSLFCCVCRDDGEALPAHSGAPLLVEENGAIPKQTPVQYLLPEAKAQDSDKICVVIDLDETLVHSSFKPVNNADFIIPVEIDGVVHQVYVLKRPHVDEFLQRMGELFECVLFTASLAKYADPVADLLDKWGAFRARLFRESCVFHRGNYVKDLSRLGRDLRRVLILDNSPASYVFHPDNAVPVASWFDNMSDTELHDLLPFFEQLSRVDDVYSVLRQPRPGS

Estrogen receptor beta [7] = target: T3, Estrogen receptor beta
P388 = test: cells; assay type: functional; details: Mus musculus
P388/ADR = test: cells; assay type: functional; details: Mus musculus
SN12K1 = test: cells; assay type: functional; details: Homo sapiens
[8] = target: T5, Rac GTPase-activating protein 1 (Homo sapiens, UniProt Q9H0H5); test: blockers of MgcRacGAP-driven Rac1 GTP hydrolysis – biochemical, ADP Hunter fluorescence, primary and confirmatory, confirmation (AID 624330); assay type: functional
T5 sequence (Q9H0H5 whole entry): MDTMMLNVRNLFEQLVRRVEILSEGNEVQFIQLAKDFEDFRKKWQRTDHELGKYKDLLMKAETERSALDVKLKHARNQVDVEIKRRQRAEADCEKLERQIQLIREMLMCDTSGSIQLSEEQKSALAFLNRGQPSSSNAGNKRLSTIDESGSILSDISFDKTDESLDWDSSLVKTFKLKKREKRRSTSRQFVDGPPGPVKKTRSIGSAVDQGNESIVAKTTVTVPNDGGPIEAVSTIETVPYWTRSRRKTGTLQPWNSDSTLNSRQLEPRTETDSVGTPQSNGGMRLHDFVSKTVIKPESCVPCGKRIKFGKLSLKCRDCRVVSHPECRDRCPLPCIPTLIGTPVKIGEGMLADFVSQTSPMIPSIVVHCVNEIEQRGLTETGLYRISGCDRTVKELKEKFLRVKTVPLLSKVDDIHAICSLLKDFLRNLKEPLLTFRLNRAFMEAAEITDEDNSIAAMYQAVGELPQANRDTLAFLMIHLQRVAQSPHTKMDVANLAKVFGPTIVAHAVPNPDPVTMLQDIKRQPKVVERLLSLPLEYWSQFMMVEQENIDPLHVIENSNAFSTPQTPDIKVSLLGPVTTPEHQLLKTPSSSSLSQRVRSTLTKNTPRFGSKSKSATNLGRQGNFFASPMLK

[9] = target: T6, Sentrin-specific protease 8 (Homo sapiens, UniProt Q96LD8); assay type: functional;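 further: kinetic enzyme assay of SENP8 cleaving a Nedd8 protein substrate, dose-response confirmation of screening hits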
T6 sequence (Q96LD8 whole entry): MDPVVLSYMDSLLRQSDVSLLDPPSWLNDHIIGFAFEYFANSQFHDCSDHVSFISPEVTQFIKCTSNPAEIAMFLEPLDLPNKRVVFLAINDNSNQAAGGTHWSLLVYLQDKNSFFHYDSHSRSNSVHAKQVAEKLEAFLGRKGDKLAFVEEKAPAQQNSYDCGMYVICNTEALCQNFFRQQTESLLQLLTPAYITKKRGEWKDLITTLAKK

[10] = viability of HCT116 lacking mutant beta-catenin – cell-based, human colon tumor, dose response (AID 1045); assay type: functional;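 further: HCT116 colon tumor cells with beta catenin knocked out; cells exposed to compound for 60 hours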
[11] = THP-1 cell cytotoxicity, dose response, cytotoxicity control for non-replicating M. tuberculosis project (AID 489025); assay type: functional
[12] = target: Heat shock protein HSP 90-alpha (Homo sapiens, UniProt P07900); assay type: functional, organism-based
[13] = viability of PTEN-deleted HCT116 cells – cell-based, HCT116 PTEN knockout, dose response (AID 1047); assay type: functional;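 further: HCT116 colon tumor cells with PTEN knocked out; cells exposed to compound for 60 hours before readout; potency for loss of cell viability measured by luminescence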
cells = assay type: functional

T1 sequence (P98170 whole entry): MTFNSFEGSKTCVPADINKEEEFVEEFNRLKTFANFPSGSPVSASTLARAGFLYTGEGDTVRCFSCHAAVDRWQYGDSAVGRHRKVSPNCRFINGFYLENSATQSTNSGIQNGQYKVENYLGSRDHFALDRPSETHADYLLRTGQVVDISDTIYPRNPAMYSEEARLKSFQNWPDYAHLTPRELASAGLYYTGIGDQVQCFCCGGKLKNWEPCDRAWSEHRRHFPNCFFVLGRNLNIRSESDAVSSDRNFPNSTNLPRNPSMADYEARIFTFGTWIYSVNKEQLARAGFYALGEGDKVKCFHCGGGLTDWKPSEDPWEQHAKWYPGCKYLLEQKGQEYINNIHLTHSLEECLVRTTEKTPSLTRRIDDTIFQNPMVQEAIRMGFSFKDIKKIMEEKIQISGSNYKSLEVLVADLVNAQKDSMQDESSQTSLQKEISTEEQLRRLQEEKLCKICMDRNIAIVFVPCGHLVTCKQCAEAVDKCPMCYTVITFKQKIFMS
T3 sequence (Q92731 whole entry, the tested form may be a part): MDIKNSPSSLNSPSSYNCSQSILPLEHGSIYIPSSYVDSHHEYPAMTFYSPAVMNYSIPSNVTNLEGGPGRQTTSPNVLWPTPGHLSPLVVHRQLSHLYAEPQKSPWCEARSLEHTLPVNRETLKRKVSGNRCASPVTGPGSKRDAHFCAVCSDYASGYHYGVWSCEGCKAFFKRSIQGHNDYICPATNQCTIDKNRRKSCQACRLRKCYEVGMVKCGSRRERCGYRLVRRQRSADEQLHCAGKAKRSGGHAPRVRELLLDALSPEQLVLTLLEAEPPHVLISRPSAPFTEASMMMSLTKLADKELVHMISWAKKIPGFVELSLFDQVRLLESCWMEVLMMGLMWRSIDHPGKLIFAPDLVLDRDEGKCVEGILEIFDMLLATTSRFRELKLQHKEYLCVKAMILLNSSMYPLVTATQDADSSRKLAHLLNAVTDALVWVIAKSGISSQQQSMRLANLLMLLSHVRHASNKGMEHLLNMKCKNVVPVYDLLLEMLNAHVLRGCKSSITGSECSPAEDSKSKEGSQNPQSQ

## c1ccc(N=Nc2cn[nH]c2-c2ccco2)cc1
[1]
  IC50: > 100 µM (inactive)
[2]
  IC50: > 100 µM (not active)

## CCN1CCN(CCCNC(=O)Cn2cc3c(n2)CCCC3)CC1
[1]
  IC50: > 100 µM (inactive)
[2]
  IC50: > 100 µM (not active)

## O=C(NNC(=O)c1ccc(O)cc1O)c1ccc(Cl)cc1
Aminopeptidase N
  IC50: 58.1 µM (active)

## OC(c1cc(C(F)(F)F)nc2c(Cl)cc(Cl)cc12)C1CCCCN1 (centres undefined)
[3]
  AC50: 21.6 µM (active)
[4]
  CC50: 15.8 µM (active)

## O=C(COC(=O)c1ccccc1)NCc1ccco1
Estrogen receptor beta [5]
  IC50: 0.351 µM (not active)
[6]
  IC50: 11.1 µM (active)
Estrogen receptor beta [7]
  IC50: 5.54 µM (active)

## O=C(NC(Cc1ccc(I)cc1)C(=O)O)c1ccc(I)cc1 (centres undefined)
P388
  GI50: 41.4 µM (inactive)
P388/ADR
  GI50: 38 µM (inactive)
SN12K1
  GI50: > 100 µM (inactive)

## COc1ccccc1Cc1nc(-c2ccccc2)nn(C2OC(COC(C)=O)C(OC(C)=O)C(OC(C)=O)C2OC(C)=O)c1=S (centres undefined)
P388
  GI50: 21.9 µM (inactive)
P388/ADR
  GI50: 19.6 µM (inactive)
SN12K1
  GI50: 9.95 µM (inactive)

## CC1C(=O)C(C)C(c2cccs2)N(N=O)C1c1cccs1 (centres undefined)
P388
  GI50: 39.4 µM (inactive)
P388/ADR
  GI50: 36 µM (inactive)
SN12K1
  GI50: > 100 µM (inactive)

## COc1ccc(/C=C2\CCNC2=O)cc1
P388
  GI50: > 100 µM (inactive)
P388/ADR
  GI50: 82.4 µM (inactive)
SN12K1
  GI50: > 100 µM (inactive)

## CC(NC(=O)C(C)NC(=O)C(N)CCP(C)(=O)O)C(=O)O (centres undefined)
P388
  GI50: > 31.6 µM (inactive)
P388/ADR
  GI50: > 100 µM (inactive)
SN12K1
  GI50: > 100 µM (inactive)

## C=CCn1c(=O)/c(=C/c2ccc(O)cc2)s/c1=C(/C#N)c1nnc2n1CCCCC2
Aminopeptidase N
  IC50: 51.1 µM (active)
[8]
  IC50: 58.7 µM (active)

## O=C(Nc1c(-c2ccccc2)[nH][nH]c1=O)c1cnccn1
[9]
  IC50: 42.5 µM (active)

## NC(=O)c1ccc(/N=C/c2ccc([N+](=O)[O-])s2)cc1
[10]
  EC50: 5.3 µM (active)
[11]
  CC50: 19.2 µM (active)
[12]
  AC50: 1.98 µM (active)
[9]
  IC50: 2.47 µM (active)
[13]
  EC50: 5.94 µM (active)
cells
  IC50: 13.4 µM (active)
